Laboratory results from patent US7144591B2, “Composition containing citronella java oil and use thereof for repelling insects” (priority 2002, dated 2006).

Tested on: Aedes aegypti (yellow fever mosquitoes)
Test: Repellent activity with respect to mosquitoes, treated forearm in cage (Swiss Tropic Institute method)
Format: in vivo
Conditions: 2 ml on 250 cm^2 forearm, 400 mosquitoes in cage, hourly 10 min exposure

## O=C(O)CC(O)(CC(=O)O)C(=O)O [PC4, citric acid]
  repellent activity with respect to mosquitoes (result in words): surprisingly bad results
